Test results: the NIST ThermoML archive (doi:10.1021/je900278v)
Numbers after ± are expanded uncertainties.

How the values were obtained:
[1] = 101 kPa, Liquid; for viscosity: 293.15 K, Capillary tube (Ostwald / Ubbelohde) method; for mass density: 298.15 K
[2] = xn = mol fraction of the nth substance listed; details: 101 kPa, Liquid; for viscosity: 293.15 K, Capillary tube (Ostwald / Ubbelohde) method; for mass density: 298.15 K

BrCCBr [1,2-dibromoethane]
[1]
Details | mass density [kg/m3] | viscosity [mPa·s]
– | 2179.59 ± 2.2 | 1.733 ± 0.011

BrCCBr [1,2-dibromoethane] + CCCCCCO
[2]
Details | mass density [kg/m3] | viscosity [mPa·s]
x1 = 0.0402 | 856.608 ± 0.41 | 4.925 ± 0.033
x1 = 0.0682 | 883.413 ± 0.38 | 4.703 ± 0.031
x1 = 0.1276 | 941.916 ± 0.31 | 4.275 ± 0.028
x1 = 0.2056 | 1022.36 ± 0.28 | 3.781 ± 0.025
x1 = 0.2686 | 1090.47 ± 0.37 | 3.412 ± 0.022
x1 = 0.3892 | 1228.97 ± 0.57 | 2.862 ± 0.019
x1 = 0.4277 | 1276.43 ± 0.66 | 2.711 ± 0.018
x1 = 0.5444 | 1427.13 ± 0.9 | 2.325 ± 0.015
x1 = 0.6405 | 1562 ± 1.1 | 2.07 ± 0.014
x1 = 0.7326 | 1701.64 ± 1.4 | 1.877 ± 0.012
x1 = 0.8519 | 1899.69 ± 1.7 | 1.726 ± 0.011
x1 = 0.9273 | 2036.52 ± 2 | 1.69 ± 0.011
x1 = 0.9587 | 2096.51 ± 2.1 | 1.692 ± 0.011
x1 = 0.9782 | 2135.29 ± 2.2 | 1.71 ± 0.011
x1 = 1 | 2179.59 ± 2.2 | 1.733 ± 0.011

ClCCCl [1,2-dichloroethane]
[1]
Details | mass density [kg/m3] | viscosity [mPa·s]
– | 1252.77 ± 0.6 | 0.827 ± 0.007

ClCCCl [1,2-dichloroethane] + CCCCCCO
[2]
Details | mass density [kg/m3] | viscosity [mPa·s]
x1 = 0.037 | 828.769 ± 0.68 | 5.008 ± 0.032
x1 = 0.0769 | 839.847 ± 0.69 | 4.696 ± 0.03
x1 = 0.1499 | 860.583 ± 0.68 | 4.191 ± 0.027
x1 = 0.2147 | 879.725 ± 0.7 | 3.787 ± 0.025
x1 = 0.2935 | 904.954 ± 0.73 | 3.292 ± 0.023
x1 = 0.3952 | 940.475 ± 0.75 | 2.726 ± 0.02
x1 = 0.4532 | 962.107 ± 0.82 | 2.405 ± 0.018
x1 = 0.5596 | 1005.05 ± 0.84 | 1.894 ± 0.015
x1 = 0.6113 | 1027.55 ± 0.94 | 1.677 ± 0.013
x1 = 0.6971 | 1067.98 ± 1 | 1.372 ± 0.011
x1 = 0.7791 | 1111.06 ± 1.1 | 1.137 ± 0.009
x1 = 0.8563 | 1155.16 ± 1.3 | 0.977 ± 0.008
x1 = 0.9335 | 1205.43 ± 1.4 | 0.873 ± 0.007
x1 = 0.979 | 1236.99 ± 1.5 | 0.833 ± 0.007
x1 = 1 | 1252.77 ± 0.6 | 0.827 ± 0.007

CCCCCCO [hexan-1-ol]
[1]
Details | mass density [kg/m3] | viscosity [mPa·s]
– | 818.856 ± 0.42 | 5.291 ± 0.03

CCCCCCO [hexan-1-ol] + BrCCBr
[2], x2 = 0
Details | mass density [kg/m3] | viscosity [mPa·s]
– | 818.856 ± 0.42 | 5.291 ± 0.03

CCCCCCO [hexan-1-ol] + ClC(Cl)=C(Cl)Cl
[2], x2 = 0
Details | mass density [kg/m3] | viscosity [mPa·s]
– | 818.856 ± 0.42 | 5.291 ± 0.03

CCCCCCO [hexan-1-ol] + ClCCCl
[2], x2 = 0
Details | mass density [kg/m3] | viscosity [mPa·s]
– | 818.856 ± 0.42 | 5.291 ± 0.03

ClC(Cl)=C(Cl)Cl [tetrachloroethene]
[1]
Details | mass density [kg/m3] | viscosity [mPa·s]
– | 1622.74 ± 1.2 | 0.89 ± 0.007

ClC(Cl)=C(Cl)Cl [tetrachloroethene] + CCCCCCO
[2]
Details | mass density [kg/m3] | viscosity [mPa·s]
x1 = 0.0688 | 864.637 ± 0.38 | 4.756 ± 0.031
x1 = 0.123 | 901.521 ± 0.33 | 4.351 ± 0.029
x1 = 0.2457 | 987.759 ± 0.22 | 3.493 ± 0.024
x1 = 0.3618 | 1072.99 ± 0.31 | 2.772 ± 0.02
x1 = 0.4502 | 1140.46 ± 0.41 | 2.308 ± 0.017
x1 = 0.5583 | 1226.3 ± 0.55 | 1.853 ± 0.014
x1 = 0.6518 | 1303.62 ± 0.68 | 1.534 ± 0.012
x1 = 0.7068 | 1350.53 ± 0.76 | 1.382 ± 0.01
x1 = 0.7419 | 1381.18 ± 0.81 | 1.297 ± 0.01
x1 = 0.7797 | 1414.65 ± 0.87 | 1.213 ± 0.009
x1 = 0.8315 | 1461.44 ± 0.95 | 1.116 ± 0.009
x1 = 0.8718 | 1498.8 ± 1 | 1.051 ± 0.008
x1 = 0.9179 | 1542.25 ± 1.1 | 0.982 ± 0.008
x1 = 0.9504 | 1573.61 ± 1.2 | 0.942 ± 0.007
x1 = 1 | 1622.74 ± 1.2 | 0.89 ± 0.007
